Assay results from patent US10194662B2, “Carbamate compound and use thereof” (SUMITOMO CHEMICAL COMPANY, LIMITED, priority 2015, dated 2019).

Columns and labels:
[1] = system: rice blast fungus (Magnaporthe grisea); type: in vivo; settings: rice (Nipponbare), 500 ppm foliar spray, contact with infected seedling, 6 days
[2] = system: wheat rust fungus (Puccinia recondita); test: Test Example 2: wheat rust, foliar spray preventive test; type: in vivo; settings: wheat (Shirogane), 500 ppm foliar spray, inoculated 5 days after spraying, assessed after 1 + 8 days

| SMILES | lesion areas on treated plant relative to non-treated plant [1] [%] | area of the lesion on treated plant relative to untreated plant [2] [%] |
| --- | --- | --- |
| COC(=O)Nc1cccc(C)c1COc1ccc(-c2nccc(C)n2)cc1C [Compound 2] | ≤ 30 |  |
| COC(=O)Nc1ccccc1COc1ccc(-c2ncccn2)cc1 [methyl N-(2-{[4-(pyrimidine-2-yl)phenoxy)methyl}phenyl)carbamate] |  | ≥ 70 |
